Reference: US20260042731A1, “(2,4-DICHLOROPHENOXY)ACETIC ACID ANALOGS” (CORTEVA AGRISCIENCE LLC, priority 2022, published 2026)
“And” between values parts separate entries of the source, which are not always exact repeats. Identical values can stand only once. Like-named read-outs stand apart in the source and are kept apart here.

Experiments:
[1] = system: Abutilon theophrasti (ABUTH), velvetleaf; test: Postemergence herbicide evaluation, growth of Abutilon theophrasti (ABUTH); type: in vivo; conditions: Abutilon theophrasti, post-emergence, read-out: AVE. ABUTH, percent reduction in plant size relative to the untreated control; for pest or weed control at 280 g/ha: 280 g ae/ha; for pest or weed control at 560 g/ha: 560 g ae/ha
[2] = system: Amaranthus rudis (AMATA), tall water hemp; test: Postemergence herbicide evaluation, growth of Amaranthus rudis (AMATA); type: in vivo; conditions: Amaranthus tuberculatus, post-emergence, read-out: Ave. AMATA, percent reduction in plant size relative to the untreated control; for pest or weed control at 280 g/ha: 280 g ae/ha; for pest or weed control at 560 g/ha: 560 g ae/ha
[3] = system: glyphosate resistant Conyza canadensis (L.) (ERICA), horseweed; test: Postemergence herbicide evaluation, growth of Conyza canadensis (ERICA); type: in vivo; conditions: Erigeron canadensis, post-emergence, read-out: Ave. ERICA, percent reduction in plant size relative to the untreated control; for pest or weed control at 280 g/ha: 280 g ae/ha; for pest or weed control at 560 g/ha: 560 g ae/ha
[4] = system: weeds ABUTH, AMATA, AMBEL, CHEAL, ERICA; test: Postemergence herbicide evaluation, overall average % weed control (ABUTH, AMATA, AMBEL, CHEAL, ERICA); type: in vivo; conditions: post-emergence, read-out: Overall Ave % Weed Control; for pest or weed control at 280 g/ha: 280 g ae/ha; for pest or weed control at 560 g/ha: 560 g ae/ha
[5] = system: Ambrosia artemisiifolia (AMBEL), common ragweed; test: Postemergence herbicide evaluation, growth of Ambrosia artemisiifolia (AMBEL); type: in vivo; conditions: Ambrosia artemisiifolia, post-emergence, read-out: AVE. AMBEL, percent reduction in plant size relative to the untreated control; for pest or weed control at 280 g/ha: 280 g ae/ha; for pest or weed control at 560 g/ha: 560 g ae/ha
[6] = Volatility of compounds measured by thermogravimetric analysis (TGA); type: physicochemical
[7] = system: Chenopodium album (CHEAL), common lambsquarters; test: Postemergence herbicide evaluation, growth of Chenopodium album (CHEAL); type: in vivo; conditions: Chenopodium album, post-emergence, read-out: Ave. CHEAL, percent reduction in plant size relative to the untreated control; for pest or weed control at 280 g/ha: 280 g ae/ha; for pest or weed control at 560 g/ha: 560 g ae/ha

Q: For `O=C(COc1ccc(Cl)cc1Cl)O/N=C/c1cccnc1` [Compound A29], which pest or weed control at 280 g/ha ([1]; 168 h, 7 DAA) is on record?
A: 50%

Q: What about the pest or weed control at 560 g/ha ([1]; 168 h, 7 DAA) of the same compound?
A: 70%

Q: And the pest or weed control at 280 g/ha ([1]; 336 h, 14 DAA)?
A: 67.5%

Q: And the pest or weed control at 560 g/ha ([1]; 336 h, 14 DAA)?
A: 82.5%

Q: And the pest or weed control at 280 g/ha ([1]; 504 h, 21 DAA)?
A: 77.5%

Q: And the pest or weed control at 560 g/ha ([1]; 504 h, 21 DAA)?
A: 97.5%

Q: What about the pest or weed control at 280 g/ha ([2]; 168 h, 7 DAA) of the same compound?
A: 70%

Q: And the pest or weed control at 560 g/ha ([2]; 168 h, 7 DAA)?
A: 91%

Q: And the pest or weed control at 280 g/ha ([2]; 336 h, 14 DAA)?
A: 90%

Q: What about the pest or weed control at 560 g/ha ([2]; 336 h, 14 DAA) of the same compound?
A: 97%

Q: What about the pest or weed control at 280 g/ha ([2]; 504 h, 21 DAA) of the same compound?
A: 72.5%

Q: What about the pest or weed control at 560 g/ha ([2]; 504 h, 21 DAA) of the same compound?
A: 100%

Q: And the pest or weed control at 280 g/ha ([3]; 168 h, 7 DAA)?
A: 77.5%

Q: And the pest or weed control at 560 g/ha ([3]; 168 h, 7 DAA)?
A: 82.5%

Q: What about the pest or weed control at 280 g/ha ([3]; 336 h, 14 DAA) of the same compound?
A: 100%

Q: What about the pest or weed control at 560 g/ha ([3]; 336 h, 14 DAA) of the same compound?
A: 99%

Q: And the pest or weed control at 280 g/ha ([3]; 504 h, 21 DAA)?
A: 99%

Q: And the pest or weed control at 560 g/ha ([3]; 504 h, 21 DAA)?
A: 96.5%

Q: And the pest or weed control at 280 g/ha ([4]; 168 h, 7 DAA)?
A: 71.5%

Q: And the pest or weed control at 560 g/ha ([4]; 168 h, 7 DAA)?
A: 79.7%

Q: What about the pest or weed control at 280 g/ha ([4]; 336 h, 14 DAA) of the same compound?
A: 85.8%

Q: What about the pest or weed control at 560 g/ha ([4]; 336 h, 14 DAA) of the same compound?
A: 94.7%

Q: What about the pest or weed control at 280 g/ha ([4]; 504 h, 21 DAA) of the same compound?
A: 88.1%

Q: What about the pest or weed control at 560 g/ha ([4]; 504 h, 21 DAA) of the same compound?
A: 98.3%

Q: And the pest or weed control at 280 g/ha ([5]; 168 h, 7 DAA)?
A: 77.5%

Q: What about the pest or weed control at 560 g/ha ([5]; 168 h, 7 DAA) of the same compound?
A: 77.5%

Q: And the pest or weed control at 280 g/ha ([5]; 336 h, 14 DAA)?
A: 75%

Q: What about the pest or weed control at 560 g/ha ([5]; 336 h, 14 DAA) of the same compound?
A: 100%

Q: What about the pest or weed control at 280 g/ha ([5]; 504 h, 21 DAA) of the same compound?
A: 100%

Q: What about the pest or weed control at 560 g/ha ([5]; 504 h, 21 DAA) of the same compound?
A: 100%

Q: What about the “TGA Data (rate of weight loss, volatility)” value [6] of the same compound?
A: 0.38 µg/min

Q: And the pest or weed control at 280 g/ha ([7]; 168 h, 7 DAA)?
A: 82.5%

Q: What about the pest or weed control at 560 g/ha ([7]; 168 h, 7 DAA) of the same compound?
A: 77.5%

Q: What about the pest or weed control at 280 g/ha ([7]; 336 h, 14 DAA) of the same compound?
A: 96.5%

Q: And the pest or weed control at 560 g/ha ([7]; 336 h, 14 DAA)?
A: 95%

Q: And the pest or weed control at 280 g/ha ([7]; 504 h, 21 DAA)?
A: 91.5%

Q: What about the pest or weed control at 560 g/ha ([7]; 504 h, 21 DAA) of the same compound?
A: 97.5%

Q: What does the source list for `O=C(COc1ccc(Cl)cc1Cl)O/N=C/c1ccccn1` [Compound A32]?
A: pest or weed control at 280 g/ha ([1]; 168 h, 7 DAA): 55%; pest or weed control at 560 g/ha ([1]; 168 h, 7 DAA): 67.5%; pest or weed control at 280 g/ha ([1]; 336 h, 14 DAA): 74%; pest or weed control at 560 g/ha ([1]; 336 h, 14 DAA): 88.5%; pest or weed control at 280 g/ha ([1]; 504 h, 21 DAA): 87.5%; pest or weed control at 560 g/ha ([1]; 504 h, 21 DAA): 98.5%; pest or weed control at 280 g/ha ([2]; 168 h, 7 DAA): 70%; pest or weed control at 560 g/ha ([2]; 168 h, 7 DAA): 90%; pest or weed control at 280 g/ha ([2]; 336 h, 14 DAA): 96%; pest or weed control at 560 g/ha ([2]; 336 h, 14 DAA): 87.5%; pest or weed control at 280 g/ha ([2]; 504 h, 21 DAA): 60%; pest or weed control at 560 g/ha ([2]; 504 h, 21 DAA): 94%; pest or weed control at 280 g/ha ([3]; 168 h, 7 DAA): 87.5%; pest or weed control at 560 g/ha ([3]; 168 h, 7 DAA): 75%; pest or weed control at 280 g/ha ([3]; 336 h, 14 DAA): 97%; pest or weed control at 560 g/ha ([3]; 336 h, 14 DAA): 99.5%; pest or weed control at 280 g/ha ([3]; 504 h, 21 DAA): 99%; pest or weed control at 560 g/ha ([3]; 504 h, 21 DAA): 98%; pest or weed control at 280 g/ha ([4]; 168 h, 7 DAA): 74%; pest or weed control at 560 g/ha ([4]; 168 h, 7 DAA): 76.5%; pest or weed control at 280 g/ha ([4]; 336 h, 14 DAA): 87.4%; pest or weed control at 560 g/ha ([4]; 336 h, 14 DAA): 92.6%; pest or weed control at 280 g/ha ([4]; 504 h, 21 DAA): 88.8%; pest or weed control at 560 g/ha ([4]; 504 h, 21 DAA): 97.6%; pest or weed control at 280 g/ha ([5]; 168 h, 7 DAA): 75%; pest or weed control at 560 g/ha ([5]; 168 h, 7 DAA): 75%; pest or weed control at 280 g/ha ([5]; 336 h, 14 DAA): 72.5%; pest or weed control at 560 g/ha ([5]; 336 h, 14 DAA): 92.5%; pest or weed control at 280 g/ha ([5]; 504 h, 21 DAA): 100%; pest or weed control at 560 g/ha ([5]; 504 h, 21 DAA): 100%; TGA Data (rate of weight loss, volatility) [6]: 0.809 µg/min and 0.87 µg/min; pest or weed control at 280 g/ha ([7]; 168 h, 7 DAA): 82.5%; pest or weed control at 560 g/ha ([7]; 168 h, 7 DAA): 75%; pest or weed control at 280 g/ha ([7]; 336 h, 14 DAA): 97.5%; pest or weed control at 560 g/ha ([7]; 336 h, 14 DAA): 95%; pest or weed control at 280 g/ha ([7]; 504 h, 21 DAA): 97.5%; pest or weed control at 560 g/ha ([7]; 504 h, 21 DAA): 97.5%
